Results published in patent US9650395B2, “Antibacterial compounds and methods for use” (PTC Therapeutics, Inc., priority 2011, dated 2017).
Values after ≈ are worked out from the molar mass of the structure shown.

What was measured:
[1] = tested on: quinolone resistant E. coli LZ3111; test: Antibacterial activity, MIC, quinolone resistant E. coli LZ3111; assay type: cell-based, Escherichia coli; conditions: Escherichia coli, read-out: MIC, LZ3111
From the text: The antibacterial activity from a microbroth dilution method may be presented as the minimum inhibitory concentration (MIC in […]). The MIC value is the lowest concentration of a drug which prevents macroscopically visible bacterial growth under test conditions.
Mutations in these regions are known to confer a high level resistance to the quinolone class of antibiotics.

[2] = tested on: control Gram-negative E. coli 25922 strain; test: Antibacterial activity, microbroth dilution MIC, E. coli 25922; assay type: cell-based, Escherichia coli; conditions: Escherichia coli; E. coli 25922, microbroth dilution; read-out: MIC, 25922
[3] = tested on: Gram-positive Staphylococcus aureus (S. aureus) 29213; test: Antibacterial activity, microbroth dilution MIC, S. aureus 29213; assay type: cell-based; conditions: Staphylococcus aureus; S. aureus 29213, microbroth dilution; read-out: MIC, 29213
[4] = tested on: super sensitive Gram-negative Escherichia coli (E. coli) BAS849; test: Antibacterial activity, microbroth dilution MIC, E. coli BAS849; assay type: cell-based; conditions: Escherichia coli; E. coli BAS849, microbroth dilution; read-out: MIC, BAS849

Row | Compound | MIC [1] [µg/mL] | MIC [2] [µg/mL] | MIC [3] [µg/mL] | MIC [4] [µg/mL]
1 | CCc1cc(C(=O)O)c(=O)[nH]c1-c1ccc(OC)cc1F [Cpd 30, 5-ethyl-6-(2-fluoro-4-methoxyphenyl)-2-oxo-1,2-dihydropyridine-3-carboxylic acid] | 12.5 to 150 (≈ 42.9 to 515 µM) | 12.5 to 150 (≈ 42.9 to 515 µM) | 12.5 to 150 (≈ 42.9 to 515 µM) | 1 to 3.5 (≈ 3.43 to 12 µM)
2 | CCc1c(-c2c(OC)cc(OC)cc2OC)[nH]c(=O)c(C(=O)O)c1O [Cpd 41, 5-ethyl-4-hydroxy-2-oxo-6-(2,4,6-trimethoxyphenyl)-1,2-dihydropyridine-3-carboxylic acid] | 12.5 to 150 (≈ 35.8 to 429 µM) | 12.5 to 150 (≈ 35.8 to 429 µM) | 12.5 to 150 (≈ 35.8 to 429 µM) | 12.5 to 150 (≈ 35.8 to 429 µM)
3 | CCc1c(-c2ccc(OC)c(OC)c2OC)[nH]c(=O)c(C(=O)O)c1O [Cpd 42, 5-ethyl-4-hydroxy-2-oxo-6-(2,3,4-trimethoxyphenyl)-1,2-dihydropyridine-3-carboxylic acid] | 12.5 to 150 (≈ 35.8 to 429 µM) | 12.5 to 150 (≈ 35.8 to 429 µM) | 1 to 3.5 (≈ 2.86 to 10 µM) | < 1
4 | CCc1c(-c2ccc(N3CCCCC3)cc2F)[nH]c(=O)c(C(=O)O)c1O [Cpd 44, 5-ethyl-6-[2-fluoro-4-(piperidin-1-yl)phenyl]-4-hydroxy-2-oxo-1,2-dihydropyridine-3-carboxylic acid] | 12.5 to 150 (≈ 34.7 to 416 µM) | 12.5 to 150 (≈ 34.7 to 416 µM) | 1 to 3.5 (≈ 2.77 to 9.71 µM) | 1 to 3.5 (≈ 2.77 to 9.71 µM)
5 | CCc1c(-c2ccc(N3CCCC3)cc2OC)[nH]c(=O)c(C(=O)O)c1O [Cpd 45, 5-ethyl-4-hydroxy-6-[2-methoxy-4-(pyrrolidin-1-yl)phenyl]-2-oxo-1,2-dihydropyridine-3-carboxylic acid] | 12.5 to 150 (≈ 34.9 to 419 µM) | 12.5 to 150 (≈ 34.9 to 419 µM) | 3.5 to 12.5 (≈ 9.77 to 34.9 µM) | 3.5 to 12.5 (≈ 9.77 to 34.9 µM)
6 | CCc1c(-c2ccc(N3CCCCC3)cc2OC)[nH]c(=O)c(C(=O)O)c1O [Cpd 49, 5-ethyl-4-hydroxy-6-[2-methoxy-4-(piperidin-1-yl)phenyl]-2-oxo-1,2-dihydropyridine-3-carboxylic acid] | 12.5 to 150 (≈ 33.6 to 403 µM) | 12.5 to 150 (≈ 33.6 to 403 µM) | 3.5 to 12.5 (≈ 9.4 to 33.6 µM) | 3.5 to 12.5 (≈ 9.4 to 33.6 µM)
7 | CCc1cc(C(=O)O)c(=O)[nH]c1-c1ccc(N2CCCC2)cc1OC [Cpd 50, 5-ethyl-6-[2-methoxy-4-(pyrrolidin-1-yl)phenyl]-2-oxo-1,2-dihydropyridine-3-carboxylic acid] | 12.5 to 150 (≈ 36.5 to 438 µM) | 12.5 to 150 (≈ 36.5 to 438 µM) | 12.5 to 150 (≈ 36.5 to 438 µM) | 12.5 to 150 (≈ 36.5 to 438 µM)
8 | CCc1c(-c2ccc(N(C)C)cc2F)[nH]c(=O)c(C(=O)O)c1O [Cpd 55, 6-[4-(dimethylamino)-2-fluorophenyl]-5-ethyl-4-hydroxy-2-oxo-1,2-dihydropyridine-3-carboxylic acid] | 12.5 to 150 (≈ 39 to 468 µM) | 12.5 to 150 (≈ 39 to 468 µM) | 3.5 to 12.5 (≈ 10.9 to 39 µM) | < 1
9 | CCc1cc(C(=O)O)c(=O)[nH]c1-c1ccc(N2CCCCC2)c(OC)c1 [Cpd 68, 5-ethyl-6-[3-methoxy-4-(piperidin-1-yl)phenyl]-2-oxo-1,2-dihydropyridine-3-carboxylic acid] | 12.5 to 150 (≈ 35.1 to 421 µM) | 12.5 to 150 (≈ 35.1 to 421 µM) | 12.5 to 150 (≈ 35.1 to 421 µM) | 12.5 to 150 (≈ 35.1 to 421 µM)
10 | CCc1c(-c2ccc(N3CCOCC3)cn2)[nH]c(=O)c(C(=O)O)c1O [Cpd 112, 5-ethyl-4-hydroxy-6-(5-morpholinopyridin-2-yl)-2-oxo-1,2-dihydropyridine-3-carboxylic acid] | 12.5 to 150 (≈ 36.2 to 434 µM) | 12.5 to 150 (≈ 36.2 to 434 µM) | 12.5 to 150 (≈ 36.2 to 434 µM) | < 1
11 | CCc1c(-c2ccc(N3CCNCC3)cn2)[nH]c(=O)c(C(=O)O)c1O [Cpd 113, 5-ethyl-4-hydroxy-2-oxo-6-[5-(piperazin-1-yl)pyridin-2-yl]-1,2-dihydropyridine-3-carboxylic acid] | 12.5 to 150 (≈ 36.3 to 436 µM) | 3.5 to 12.5 (≈ 10.2 to 36.3 µM) | 12.5 to 150 (≈ 36.3 to 436 µM) | 3.5 to 12.5 (≈ 10.2 to 36.3 µM)
12 | CCc1cc(C(=O)O)c(=O)[nH]c1-c1ccc(N2C(=O)CCC2C)cc1 (centres unmarked) [Cpd 116, 5-ethyl-6-[4-(2-methyl-5-oxopyrrolidin-1-yl)phenyl]-2-oxo-1,2-dihydropyridine-3-carboxylic acid] | 12.5 to 150 (≈ 36.7 to 441 µM) | 12.5 to 150 (≈ 36.7 to 441 µM) | 12.5 to 150 (≈ 36.7 to 441 µM) | 12.5 to 150 (≈ 36.7 to 441 µM)
13 | CCc1cc(C(=O)O)c(=O)[nH]c1-c1ccc(N2CC[C@H](O)C2=O)cc1 [Cpd 117, 5-ethyl-6-{4-[(3S)-3-hydroxy-2-oxopyrrolidin-1-yl]phenyl}-2-oxo-1,2-dihydropyridine-3-carboxylic acid] | 12.5 to 150 (≈ 36.5 to 438 µM) | 12.5 to 150 (≈ 36.5 to 438 µM) | 12.5 to 150 (≈ 36.5 to 438 µM) | 12.5 to 150 (≈ 36.5 to 438 µM)
14 | CCc1cc(C(=O)O)c(=O)[nH]c1-c1ccc(N2C[C@@H](N)[C@@H](OC)C2)cc1.Cl [Cpd 135, 6-{4-[(3R,4S)-3-amino-4-methoxypyrrolidin-1-yl]phenyl}-5-ethyl-2-oxo-1,2-dihydropyridine-3-carboxylic acid hydrochloride] | 12.5 to 150 | 12.5 to 150 | 12.5 to 150 | < 1
